Reference: patent US20260256923A1, “NEW RECRUITMENT ELEMENT OF UBIQUITIN LIGASE AND USE THEREOF” (SHENZHEN LINGGENE BIOTECH CO., LTD., priority 2023, published 2026)

Legend:
STAT3 = STAT3 (Homo sapiens, UniProt P40763); assay: STAT3 protein degradation in HeLa cells, western blot; type: cell-based; parameters: endogenous in cells; host or cells: HeLa; conditions: 500 nM, 6 h
Procedure: HeLa cells were incubated with 500 nM said first PROTAC product 1411-S3-1 or second PROTAC product 1411-S3-2, and corresponding cell samples were collected at time gradients of 0 h, 2 h, 6 h, 12 h, 18 h, and 24 h for protein extraction and subsequent western blot assay.
HeLa cells were incubated with the first PROTAC product 1411-S3-1 or the second PROTAC product 1411-S3-2 at concentrations of 0 nM, 100 nM, 200 nM, 500 nM, and 1000 nM. After 6 h, cell samples were collected for protein extraction and subsequent western blot assay. […] The half-maximal degradation concentrations (DC50) of the first PROTAC product 1411-S3-1 and the second PROTAC product 1411-S3-2 against STAT3 at the protein level were 262.5 nM and 136.3 nM, respectively, as shown in FIG. 19.
HeLa cells were incubated with 500 nM double-stranded transcription factor decoy oligonucleotide S3, AS1411, the first PROTAC product 1411-S3-1, the second PROTAC product 1411-S3-2, or AS1411+double-stranded transcription factor decoy oligonucleotide S3. After 6 h, cell samples were collected for protein extraction and subsequent western blot assay.
HeLa cells were incubated with 500 nM said first PROTAC product 1411-S3-1 or second PROTAC product 1411-S3-2, and proteasome inhibitor MG132 was added. After 6 h, cell samples were collected for protein extraction and subsequent western blot assay. […]

[1] = phase I and phase II clinical trials; cited from earlier work
MDM2 = MDM2 (Homo sapiens, UniProt Q00987); assay: Biotin-oligonucleotide pull-down with recombinant proteins (MDM2); type: binding; parameters: purchased R&D Systems (MDM2); ACROBiosystems (NCL) E3-202-050 (MDM2); NUL-H5253 (NCL); conditions: 400 nM 5′-biotin label, 6 μg/mL NCL + 6 μg/mL MDM2
Sequence of MDM2 (P19338 whole entry partner): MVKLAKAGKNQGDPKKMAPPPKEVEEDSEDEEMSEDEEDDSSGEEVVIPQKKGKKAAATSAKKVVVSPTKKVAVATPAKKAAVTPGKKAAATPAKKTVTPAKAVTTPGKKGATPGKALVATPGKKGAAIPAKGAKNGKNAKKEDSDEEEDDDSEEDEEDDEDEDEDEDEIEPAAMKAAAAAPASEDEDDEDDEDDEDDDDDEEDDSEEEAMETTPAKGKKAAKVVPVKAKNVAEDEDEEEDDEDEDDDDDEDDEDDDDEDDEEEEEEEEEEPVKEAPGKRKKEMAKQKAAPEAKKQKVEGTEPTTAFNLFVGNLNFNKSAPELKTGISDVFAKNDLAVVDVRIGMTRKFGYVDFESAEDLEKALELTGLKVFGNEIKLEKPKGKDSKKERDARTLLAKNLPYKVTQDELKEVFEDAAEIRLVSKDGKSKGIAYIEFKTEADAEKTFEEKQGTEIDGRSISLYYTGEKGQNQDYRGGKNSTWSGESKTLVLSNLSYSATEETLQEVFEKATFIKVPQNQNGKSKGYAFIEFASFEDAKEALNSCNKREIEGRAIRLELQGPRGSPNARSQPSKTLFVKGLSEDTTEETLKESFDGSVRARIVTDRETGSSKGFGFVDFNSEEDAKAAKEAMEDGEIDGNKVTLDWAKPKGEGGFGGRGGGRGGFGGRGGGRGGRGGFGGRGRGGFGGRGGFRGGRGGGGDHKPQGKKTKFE
Sequence of MDM2 (Q00987 whole entry): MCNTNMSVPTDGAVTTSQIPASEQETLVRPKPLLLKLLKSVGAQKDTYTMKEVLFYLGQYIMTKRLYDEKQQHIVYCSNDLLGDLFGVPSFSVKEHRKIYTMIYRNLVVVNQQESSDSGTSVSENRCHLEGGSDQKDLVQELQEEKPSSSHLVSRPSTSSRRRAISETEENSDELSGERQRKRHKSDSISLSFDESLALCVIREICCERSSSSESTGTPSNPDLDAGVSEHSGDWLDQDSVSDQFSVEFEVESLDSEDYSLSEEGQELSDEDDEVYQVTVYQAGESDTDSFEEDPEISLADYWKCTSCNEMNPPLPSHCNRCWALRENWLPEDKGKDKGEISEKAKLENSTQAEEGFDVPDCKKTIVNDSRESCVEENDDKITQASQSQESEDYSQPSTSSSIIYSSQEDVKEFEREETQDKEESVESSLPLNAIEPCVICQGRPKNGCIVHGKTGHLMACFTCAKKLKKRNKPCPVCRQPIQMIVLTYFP
Procedure: 6 μg/mL recombinant human NCL and 6 μg/mL recombinant human MDM2 were mixed well and incubated at 4° C. for 7 h. Subsequently, 400 nM CRO, AS1411, or iSN04 labeled by biotin at the 5′ end was added, and the mixture was incubated at 4° C. for 6 h. Streptavidin agarose gel beads (purchased from cytiva, Cat. No.: 17511301) were added, and the mixture was further incubated at 4° C. overnight. The gel beads were washed 4 times with a TBST buffer, and an SDS-PAGE protein loading buffer (purchased from Beyotime, Cat. No.: P0015) was added. The mixture was heated to 100° C. and held for 10 min. After centrifugation, the supernatant was collected. The pull-down product was then detected by western blot assay.

[2] = G4 structural characteristics, N-methyl mesoporphyrin IX (NMM) fluorescent probe; type: physicochemical; conditions: 1 μM NMM
Procedure: Both AS1411 and iSN04 are oligonucleotides specifically binding to NCL. The sequence of AS1411 is SEQ ID NO: 1, and the sequence of iSN04 is SEQ ID NO: 14. AS1411 contains a plurality of GGT motifs, and iSN04 contains one GGT motif. Whether AS1411 and iSN04 have stable G4 structural characteristics was determined. The experimental process was as follows: 5 μM NC (negative control, SEQ ID NO: 15), AS1411, or iSN04 was added to water, and the total volume was 100 μL. The mixture was heated at 95° C. for 7 min and then immediately incubated on ice for 3 min, followed by the addition of 2 μL of N-methyl mesoporphyrin IX (NMM) (purchased from MCE, Cat. No.: HY-133821) to make a final concentration of 1 μM. The resulting mixture was incubated at room temperature for 1 h in the dark. The fluorescence intensity was detected by a microplate reader, with an emission wavelength of 550-700 nm and an excitation wavelength of […].
Guanine-rich DNA sequences can form more distinct G4 structural characteristics in the presence of metal ions (usually sodium and potassium ions). 5 μM NC (negative control, SEQ ID NO: 15), AS1411, or iSN04 was added to a 100 mM K^+ solution, and the total volume was 100 μL. The mixture was well mixed, heated at 95° C. for 7 min, and then immediately incubated on ice for 3 min, followed by the addition of 2 μL of N-methyl mesoporphyrin IX (NMM) (purchased from MCE, Cat. No.: HY-133821) to make a final concentration of 1 μM. The resulting mixture was incubated at room temperature for 1 h in the dark. The fluorescence intensity was detected by a microplate reader, with an emission wavelength of 550-700 nm and an excitation wavelength of […].

Sequence of STAT3 (P40763 whole entry): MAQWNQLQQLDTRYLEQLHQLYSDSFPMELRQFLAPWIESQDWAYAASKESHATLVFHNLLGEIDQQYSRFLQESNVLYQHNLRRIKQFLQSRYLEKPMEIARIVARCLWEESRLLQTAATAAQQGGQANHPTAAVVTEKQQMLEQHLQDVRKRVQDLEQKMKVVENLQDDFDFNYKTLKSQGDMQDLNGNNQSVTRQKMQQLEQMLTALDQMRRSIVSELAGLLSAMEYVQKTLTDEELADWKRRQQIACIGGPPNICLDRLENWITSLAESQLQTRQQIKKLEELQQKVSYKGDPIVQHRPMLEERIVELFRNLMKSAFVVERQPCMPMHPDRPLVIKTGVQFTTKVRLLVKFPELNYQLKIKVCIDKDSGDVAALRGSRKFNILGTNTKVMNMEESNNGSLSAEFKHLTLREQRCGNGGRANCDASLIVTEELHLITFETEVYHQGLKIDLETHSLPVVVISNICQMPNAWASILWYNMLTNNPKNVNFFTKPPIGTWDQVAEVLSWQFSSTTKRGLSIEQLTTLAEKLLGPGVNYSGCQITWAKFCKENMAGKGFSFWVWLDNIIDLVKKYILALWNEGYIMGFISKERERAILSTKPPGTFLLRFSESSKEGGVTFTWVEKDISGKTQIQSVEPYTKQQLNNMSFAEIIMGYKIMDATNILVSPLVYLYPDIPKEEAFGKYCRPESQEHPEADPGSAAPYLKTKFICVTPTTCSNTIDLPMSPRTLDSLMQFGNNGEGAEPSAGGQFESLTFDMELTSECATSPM

AS1411: DNA aptamer, GRO binding NCL, SEQ ID NO: 1: 5′-GGTGGTGGTGGTTGTGGTGGTGGTGG-3′
protein level of STAT3 (STAT3): only the first PROTAC product 1411-S3-1 and the second PROTAC product 1411-S3-2 can reduce the protein level of transcription factor STAT3 | safety in clinical trials [1]: good safety | binding / recruitment of MDM2 (MDM2): recruits MDM2 in large amounts depending on its interaction with NCL | G4 structural characteristics (fluorescence signal intensity) ([2]; 5 μM in 100 mM K+ solution): over 10000 | G4 structural characteristics (fluorescence signal intensity) ([2]; 5 μM in water (no K+)): over 4000
